{"source": "patent US7041698B2", "about": "“Hepatitis C virus inhibitors” (Bristol-Myers Squibb Company, priority 2002, dated 2006)", "key": {"NS3/4A BMS strain": {"target": "T1, NS3/4A BMS strain (UniProt P27958, C1454S/C1711G, species not given/STRAIN_BMS)", "T1 construct": "fused on or other part: Three-lysine solubilising tail at the C-terminus of NS4A", "experiment": "Recombinant HCV NS3/4A protease complex FRET peptide assay, BMS strain", "format": "biochemical, HCV genotype 1a", "details": "read-out: IC50 against the NS3/4A BMS strain in the enzyme assay", "from_the_text": "Recombinant HCV NS3/4A Protease Complex FRET Peptide Assay\nThe purpose of this in vitro assay was to measure the inhibition of HCV NS3 protease complexes, derived from the BMS, H77C or J416S strains, as described below, by compounds of the present invention. This assay provides an indication of how effective compounds of the present invention would be in inhibiting HCV proteolytic activity.\nSerum from an HCV-infected patient was obtained from Dr. T. Wright, San Francisco Hospital. An engineered full-length cDNA (compliment deoxyribonucleic acid) template of the HCV genome (BMS strain) was constructed from DNA fragments obtained by reverse transcription-PCR (RT-PCR) of serum RNA (ribonucleic acid) and using primers selected on the basis of homology between other genotype 1a strains. From the determination of the entire genome sequence, a genotype 1a was assigned to the HCV isolate according to the classification of Simmonds et al. (See P Simmonds, K A Rose, S Graham, S W Chan, F McOmish, B C Dow, E A Follett, P L Yap and H Marsden, J. Clin. Microbiol., 31(6), 1493–1503 (1993)). […]"}, "[1]": {"target": "T2, human sputum elastase (HS) (Homo sapiens, UniProt P08246)", "T2 construct": "purchased Sigma", "T2 sequence (P08246 30-267)": "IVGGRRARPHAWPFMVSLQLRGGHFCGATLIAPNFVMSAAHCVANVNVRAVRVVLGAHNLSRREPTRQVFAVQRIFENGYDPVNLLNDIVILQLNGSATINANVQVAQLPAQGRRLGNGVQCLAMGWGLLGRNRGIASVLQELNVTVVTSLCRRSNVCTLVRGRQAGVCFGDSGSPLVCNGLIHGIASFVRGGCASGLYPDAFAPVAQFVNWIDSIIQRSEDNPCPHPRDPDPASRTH", "experiment": "Specificity assay, human sputum elastase", "format": "biochemical", "details": "2 hr pre-incubation at RT", "experimental": "(§1) The specificities of compounds of the present invention were determined against a variety of serine proteases: human sputum elastase (HS), porcine pancreatic elastase (PPE) and human pancreatic chymotrypsin and one cysteine protease: human liver cathepsin B. In all cases a 96-well plate format protocol using calorimetric p-nitroaniline (pNA) substrate specific for each enzyme was used as described previously (Patent WO 00/09543) with some modifications to the serine protease assays. All enzymes were purchased from Sigma while the substrates were from Bachem.\n(§2) Each assay included a 2 hr enzyme-inhibitor pre-incubation at RT followed by addition of substrate and hydrolysis to ˜30% conversion as measured on a Spectramax Pro microplate reader. Compound concentrations varied from 100 to 0.4 μM depending on their potency. […]\n(§3) The percentage of inhibition was calculated using the formula: [1-((UVinh−UVblank)/(UVctl−UVblank))]×100 […]"}, "human liver cathepsin B": {"target": "T3, human liver cathepsin B (Homo sapiens, UniProt P07858)", "T3 construct": "purchased Sigma", "experiment": "Specificity assay, cathepsin B", "format": "biochemical", "details": "2 hr pre-incubation at RT", "experimental": "as §1, §2, §3"}}}
{"smiles": "C=CC1C[C@]1(NC(=O)[C@@H]1C[C@@H](OC(=O)Nc2ccccc2-c2ccccc2)CN1C(=O)[C@@H](NC(=O)OC(C)(C)C)C(C)(C)C)C(=O)NS(=O)(=O)C1CC1", "note": "(stereo partly drawn) [Compound 8, BocNH-P3(t-BuGly)-P2(Hyp(O—CO(NH-biphen-2-yl)))-P1(1R,2S VinylAcca)—CONHSO2Cyclopropane]", "values": [{"measurement": "IC50", "setting": "NS3/4A BMS strain", "value": 0.051, "unit": "µM"}, {"measurement": "IC50", "setting": "[1]", "value": "> 100", "unit": "µM"}, {"measurement": "IC50", "setting": "human liver cathepsin B", "value": "> 100", "unit": "µM"}]}
